Results on 1 molecule are retold here after patent publication US9234046B2, “Treatment of renal disease” (OPSONA Therapeutics Ltd, priority 2007, dated 2016).

“And” between values parts separate entries of the source, which are not always exact repeats. Equal entries are not always repeated.

The test system of this assay is mice. In words: Warm renal ischemia/reperfusion repeat study Step 2, 25 minutes ischemia (Example 3). The assay is classed as in vivo. Conditions: for MDA level as an index of lipid peroxidation / uremia (urea) / MPO activity as an index of neutrophil accumulation / creatininemia (creatinine): individual data and Mean ± SEM, n=6. How it is done: Nine Experimental groups were used in Step 2: • 1) Sham-operated mice sacrificed 1 day after surgery, n=6, • 2) PBS-vehicle-treated mice 15 minutes before ischemia/1 day reperfusion, n=6, • 3) Isotype control antibody 10 mg/kg-treated mice 15 minutes before 25 minutes ischemia/1 day reperfusion, n=6 (The isotype control antibody is mouse IgG1 isotype control purchased from RnD systems (catalogue number MAB002), this isotype control antibody having binding specificity for Keyhole Limpet Hemocyanin (KLH) antigen), • 4) OPN301 anti-TLR2 monoclonal antibody 10 mg/kg-treated mice 15 minutes before 25 minutes ischemia/1 day reperfusion, n=6, • 5) Pargyline 6 mg/kg-treated mice 15 minutes before 25 minutes ischemia/1 day reperfusion, n=6, • 6) PBS-vehicle-treated mice 15 minutes before 25 min ischemia/5 day reperfusion, n=6, • 7) Isotype control antibody (RnD Systems catalogue Number MAB002) 10 mg/kg-treated mice 15 minutes before 25 minutes ischemia/5 day reperfusion, n=6, • 8) OPN301 anti-TLR2 monoclonal antibody 10 mg/kg-treated mice 15 minutes before 25 minutes ischemia/5 day reperfusion, n=6, • 9) Pargyline 6 mg/kg-treated mice 15 minutes before 25 minutes ischemia/5 day reperfusion, n=6, Experimental Warm Renal Ischemia/Reperfusion (Step 1 and 2)
Briefly, mice were anesthetized with 10 μl/g of a mix of 2.5 ml ketamine (Ketalar 50 mg/mL, Centravet; Lapalisse, France), 0.5 ml xylazine (Rompun 2.5%, Centravet; Lapalisse, France), and 7 mL NaCl 0.9% (Centravet; Lapalisse, France). During surgery, animals were set on a 35° C. hotplate.
After a 2 millimetre incision was made at the right jugular level, jugular vein was exposed for a 1 minute-intravenous injection (insulin syringe; VWR, Fontenay-sous-Bois, France) of 70 μl of the considered treatment then closed after haemostasis (5/0 Ethicrin thread, Ethicon; Auneau, France). In Step 1, no jugular injection was performed.
Three centimetre midline incisions were made to abdominal cutaneous followed by muscular incisions were performed; renal pedicles were exposed and clamped for 25 minutes using microaneurysm clamps (AREX; Palaiseau, France). At the time of clamp installation and removal, kidneys were inspected for blood flow arrest and restoration, respectively. During renal ischemia duration, the abdomen was wrapped up to avoid loss of heat and be kept in relative intra-abdominal pressure. At the time of abdomen closing in 2 layers (5/0 Ethicrin thread, Ethicon; Auneau, France), mice were supplemented with 1 mL sterile NaCl (sodium chloride) 0.9% to maintain fluid balance and volume status. Finally, all mice received an intramuscular injection of 10 mg/kg profenid 50 mg/mL (Centravet; Lapalisse, France) for analgesic purpose then allowed to recover from surgery for 12 hours at 32° C. in a ventilated stove. Food and water were given ad libitum. Sham-operated mice underwent the same procedure without clamping.
At the end of the protocol, mice were sacrificed by lethal injection of pentobarbital (100 μL/10 g, Ceva Sante Animale; Libourne, France) 1 and 5 days after surgery.
Experimental methodology such as urea, creatinine, MPO and MDA as described in Example 2.
The results were given as mean values±standard error of the mean (SEM). A one-way ANOVA was used for comparison of within-group difference followed by a Newman-Keuls test for comparison of all pairs of columns (GraphPad Prism, San Diego, USA). A p<0.05 was accepted for statistical significance.

Take `C#CCN(C)Cc1ccccc1` [Pargyline]: the “effect on renal function impairment induced by ischemic injury, in words” value (1 day after 25 minute ischemia) was “without effects”. Further, the “MDA level as an index of lipid peroxidation” value by setting is: (Day 1 after 25 minute ischemia, PBS-vehicle 0.153 ± 0.014) 0.285 nmol/mg proteins and 0.163 nmol/mg proteins and 0.212 nmol/mg proteins and 0.242 nmol/mg proteins and 0.249 nmol/mg proteins and 0.202 nmol/mg proteins; (Day 1 after 25 minute ischemia, PBS-vehicle 0.153 ± 0.014, mean) 0.225 ± 0.017 nmol/mg proteins; (Day 5 after 25 minute ischemia, PBS-vehicle 0.188 ± 0.019) 0.290 nmol/mg proteins and 0.231 nmol/mg proteins and 0.218 nmol/mg proteins and 0.261 nmol/mg proteins and 0.234 nmol/mg proteins and 0.299 nmol/mg proteins; (Day 5 after 25 minute ischemia, PBS-vehicle 0.188 ± 0.019, mean) 0.255 ± 0.014 nmol/mg proteins. The “uremia (urea)” value is 47.99 mmol/L and 48.92 mmol/L and 40.01 mmol/L and 27.83 mmol/L and 19.35 mmol/L and 18.22 mmol/L (Day 1 after 25 minute ischemia, PBS-vehicle 31.05 ± 5.70); 33.72 ± 5.64 mmol/L (Day 1 after 25 minute ischemia, PBS-vehicle 31.05 ± 5.70, listed as pargyline); 33.72 ± 5.64 mmol/L (Day 1 after 25 minute ischemia, PBS-vehicle 31.05 ± 5.70, mean); 7.63 mmol/L and 9.48 mmol/L and 7.37 mmol/L and 7.53 mmol/L and 8.78 mmol/L and 7.29 mmol/L (Day 5 after 25 minute ischemia, PBS-vehicle 8.78 ± 0.72); 8.01 ± 0.37 mmol/L (Day 5 after 25 minute ischemia, PBS-vehicle 8.78 ± 0.72, mean). The “MPO activity as an index of neutrophil accumulation” value is 57.37±5.78 U MPO/mg protein and 47.9 U MPO/mg protein and 52.7 U MPO/mg protein and 68.7 U MPO/mg protein and 80.7 U MPO/mg protein and 48.8 U MPO/mg protein and 45.4 U MPO/mg protein (Day 1 after 25 minute ischemia, PBS-vehicle 80.45 ± 8.66); 44.4 U MPO/mg protein and 49.2 U MPO/mg protein and 47.6 U MPO/mg protein and 42.2 U MPO/mg protein and 46.3 U MPO/mg protein and 49.6 U MPO/mg protein (Day 5 after 25 minute ischemia, PBS-vehicle 54.95 ± 0.62); 46.55 ± 1.17 U MPO/mg protein (Day 5 after 25 minute ischemia, PBS-vehicle 54.95 ± 0.62, mean). The “creatininemia (creatinine)” value is 185.9 µmol/L and 150.7 µmol/L and 134.1 µmol/L and 77.6 µmol/L and 53.3 µmol/L and 26.6 µmol/L (Day 1 after 25 minute ischemia, PBS-vehicle 99.97 ± 25.64); 104.7 ± 25.20 µmol/L (Day 1 after 25 minute ischemia, PBS-vehicle 99.97 ± 25.64, listed as pargyline); 104.7 ± 25.20 µmol/L (Day 1 after 25 minute ischemia, PBS-vehicle 99.97 ± 25.64, mean); 16 μmol/L and 27.2 μmol/L and 30.7 μmol/L and 19.2 μmol/L and 22.9 μmol/L (2×) (Day 5 after 25 minute ischemia, PBS-vehicle 21.97 ± 1.84); 23.15 ± 2.16 µmol/L (Day 5 after 25 minute ischemia, PBS-vehicle 21.97 ± 1.84, mean).
